For assay [1], the target named is T1, 5-HT2A (Homo sapiens, UniProt P28223). In words: Serotonin 5-HT2A in vitro cellular IPOne agonism assay. Set-up: host or cells: CHO-K1. The following applies: CHO-K1 cells, 60 min. The assay is classed as cell-based. The protocol: Serotonin 5-HT2A In Vitro Cellular IPOne Agonism Assay. The 5-HT2A IPOne HTRF assay was performed at Epics Therapeutics S.A. (Belgium, FAST-0505I) using conventional methods. Briefly, CHO-K1 cells expressing human recombinant 5-HT2A receptor grown to mid-log phase in culture media without antibiotics were detached with PBS-EDTA, centrifuged, and resuspended in medium without antibiotics buffer. 20,000 cells are distributed in a 96 well plate and incubated overnight at 37° C. with 5% CO2.
For agonist testing, the medium was removed and 20 μl of assay buffer plus 20 μl of test compound or reference agonist were added in each well. The plate was incubated for 60 min. at 37° C. with 5% CO2.
After addition of the lysis buffer containing IP1-d2 and anti-IP1 cryptate detection reagents, plates were incubated 1-hour at room temperature, and fluorescence ratios were measured according to the manufacturer specification, with the HTRF kit.

For assay [2], the target named is T1, 5-HT2A. In words: Serotonin 5-HT2A in vitro cellular IPOne antagonism assay. The assay is classed as cell-based. Set-up: host or cells: CHO-K1. The following applies: CHO-K1 cells; reference agonist a-Me-5HT. The protocol: Serotonin 5-HT2A In Vitro Cellular IPOne Antagonism Assay. The 5-HT2A IPOne HTRF assay was performed at Epics Therapeutics S.A. (Belgium, FAST-0505I) in antagonism mode using conventional methods. Briefly, CHO-K1 cells expressing human recombinant 5-HT2A receptor grown to mid-log phase in culture media without antibiotics were detached with PBS-EDTA, centrifuged, and resuspended in medium without antibiotics buffer. 20,000 cells are distributed in a 96 well plate and incubated overnight at 37° C. with 5% CO2.
For antagonist testing, a reference agonist a-Me-5HT was added and fluorescence signal monitored for several minutes, followed by addition of 20 μl of assay buffer plus 20 μl of test compound or reference antagonist ketanserin, in each well. The plate was incubated for 60 min. at 37° C. with 5% CO2.
After addition of the lysis buffer containing IP1-d2 and anti-IP1 cryptate detection reagents, plates were incubated 1-hour at room temperature, and fluorescence ratios are measured according to the manufacturer specification, with the HTRF kit.

Assay [3] addresses T1, 5-HT2A. The assay can be described thus: Serotonin 5-HT2A in vitro radioligand binding competition assay. Set-up: purchased Epics Therapeutics S.A. (Belgium), contract assay FAST-0505B; host or cells: membrane extracts. Conditions: [3H]-DOI radiotracer, membrane extracts, read-out: 5HT2A R[…] ACTIVITY
The protocol:
Serotonin 5-HT2A In Vitro Radioligand Binding Competition Assay. The 5-HT2A radioligand binding competition assay was performed at Epics Therapeutics S.A. (Belgium, FAST-0505B) using conventional methods. Briefly, competition binding was performed in duplicate in the wells of a 96 well plate (Master Block, Greiner, 786201) containing binding buffer (optimized for each receptor), membrane extracts (amount of protein/well optimized for each receptor), radiotracer [^3H]-DOI (final concentration optimized for each receptor) and test compound. Nonspecific binding was determined by co-incubation with 200-fold excess of cold competitor. The samples were incubated in a final volume of 0.1 ml at a temperature and for a duration optimized for each receptor and then filtered over filter plates. Filters were washed six times with 0.5 ml of ice-cold washing buffer (optimized for each receptor) and 50 μl of Microscint 20 (Packard) were added in each well. The plates were incubated 15 min on an orbital shaker and then counted with a TopCount™ for 1 min/well.

As usually defined, the EC50 is the midpoint of the concentration-response curve. A higher EC50 goes with a need for much substance.

T1 sequence (P28223 whole entry): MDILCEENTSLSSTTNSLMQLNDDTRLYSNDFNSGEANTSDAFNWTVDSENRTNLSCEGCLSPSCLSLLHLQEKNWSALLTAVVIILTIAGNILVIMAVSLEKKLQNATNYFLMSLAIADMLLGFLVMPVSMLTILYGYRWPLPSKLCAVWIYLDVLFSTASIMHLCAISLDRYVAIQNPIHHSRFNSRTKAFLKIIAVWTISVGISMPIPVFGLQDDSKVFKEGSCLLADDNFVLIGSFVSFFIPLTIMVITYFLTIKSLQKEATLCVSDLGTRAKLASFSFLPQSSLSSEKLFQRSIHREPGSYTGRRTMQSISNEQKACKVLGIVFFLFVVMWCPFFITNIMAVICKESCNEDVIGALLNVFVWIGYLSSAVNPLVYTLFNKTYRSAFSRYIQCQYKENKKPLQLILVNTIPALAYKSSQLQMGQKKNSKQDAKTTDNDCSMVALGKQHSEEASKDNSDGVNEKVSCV

In turn, `Fc1ccc2c3c(sc2c1)CCN(C1CCC1)CC3` [Compound 32, 3-cyclobutyl-8-fluoro-2,3,4,5-tetrahydro-1H-benzo[4,5]thieno[2,3-d]azepine] yielded an EC50 at 5-HT2A [1] (benzothiophenes) greater than 10000 nM. The IC50 on 5-HT2A [2] and on 5-HT2A [3] (benzothiophenes) was 10 to 100 nM in each case.

At 5-HT2A [1] (benzothiophenes), `CN1CCc2sc3cc(F)ccc3c2CC1` [Compound 33, 8-fluoro-3-methyl-2,3,4,5-tetrahydro-1H-benzo[4,5]thieno[2,3-d]azepine] came in with an EC50 of 10 to 100 nM. Also, the IC50 on 5-HT2A [2] and at 5-HT2A [3] (benzothiophenes) was 10 to 100 nM each time.

`CN1CCc2sc3ccccc3c2CC1` [Compound 72, 3-methyl-2,3,4,5-tetrahydro-1H-benzo[4,5]thieno[2,3-d]azepine] came in with a concentration giving a half-maximal response (EC50) on 5-HT2A [1] (benzothiophenes) of 101 to 1000 nM. For the same molecule, the IC50 on 5-HT2A [2] and on 5-HT2A [3] (benzothiophenes) was 10 to 100 nM in each case.

`c1ccc2c3c(oc2c1)CCN(C1CCC1)CC3` [Compound 28, 3-cyclobutyl-2,3,4,5-tetrahydro-1H-benzofuro[2,3-d]azepine] gave a concentration giving a half-maximal response (EC50) at 5-HT2A [1] (benzofurans) greater than 10000 nM. Further, the IC50 on 5-HT2A [2] is greater than 10000 nM; at 5-HT2A [3] (benzofurans) it was 1000 to 10000 nM.

Turning to `CN1CCCc2oc3cccc(F)c3c2C1` [Compound 4, 10-fluoro-2-methyl-2,3,4,5-tetrahydro-1H-benzofuro[3,2-c]azepine], the 50% effective concentration (EC50) at 5-HT2A [1] (benzofurans) was greater than 10000 nM. In addition, the IC50 at 5-HT2A [3] (benzofurans) was in the range of 1000 to 10000 nM.

`Fc1ccc2c3c(oc2c1)CCNCC3` [Compound 24, 8-fluoro-2,3,4,5-tetrahydro-1H-benzofuro[2,3-d]azepine] came in with a 50% effective concentration (EC50) on 5-HT2A [1] (benzofurans) of 10 to 100 nM. In addition, the IC50 at 5-HT2A [3] (benzofurans) fell in the range of 101 to 1000 nM.

`FC(F)(F)c1ccc2c3c(oc2c1)CCNCC3` [Compound 43, 8-(trifluoromethyl)-2,3,4,5-tetrahydro-1H-benzofuro[2,3-d]azepine] had an EC50 at 5-HT2A [1] (benzofurans) of 101 to 1000 nM. Also, the IC50 on 5-HT2A [3] (benzofurans) fell in the range of 1000 to 10000 nM.

Consider `FC(F)(F)Oc1ccc2c3c(sc2c1)CCN(C1CCC1)CC3` [Compound 76, 3-cyclobutyl-8-(trifluoromethoxy)-2,3,4,5-tetrahydro-1H-benzo[4,5]thieno[2,3-d]azepine], for which the concentration for a half-maximal effect (EC50) at 5-HT2A [1] (benzothiophenes) is greater than 10000 nM. In addition, the IC50 at 5-HT2A [3] (benzothiophenes) was 1000 to 10000 nM.

In turn, `CN1CCCc2oc3cc(OC(F)(F)F)ccc3c2C1` [Compound 53, 2-methyl-8-(trifluoromethoxy)-2,3,4,5-tetrahydro-1H-benzofuro[3,2-c]azepine] had an EC50 on 5-HT2A [1] (benzofurans) greater than 10000 nM. Also, the IC50 at 5-HT2A [3] (benzofurans) is greater than 10000 nM.

Molecule `COc1ccc2c3c(oc2c1)CCNCC3` [Compound 27, 8-methoxy-2,3,4,5-tetrahydro-1H-benzofuro[2,3-d]azepine] had an EC50 on 5-HT2A [1] (benzofurans) of 1000 to 10000 nM. Besides, the IC50 on 5-HT2A [3] (benzofurans) lay in the range of 1000 to 10000 nM.

As for `FC(F)(F)Oc1ccc2c3c(sc2c1)CCNCC3` [Compound 66, 8-(trifluoromethoxy)-2,3,4,5-tetrahydro-1H-benzo[4,5]thieno[2,3-d]azepine], on 5-HT2A [1] (benzothiophenes), the concentration for a half-maximal effect (EC50) was in the range of 101 to 1000 nM. In addition, the IC50 at 5-HT2A [3] (benzothiophenes) lay in the range of 101 to 1000 nM.

As for `CN1CCCc2oc3cc(F)ccc3c2C1` [Compound 9, 8-fluoro-2-methyl-2,3,4,5-tetrahydro-1H-benzofuro[3,2-c]azepine], on 5-HT2A [1] (benzofurans), the EC50 was in the range of 1000 to 10000 nM. Besides, the IC50 on 5-HT2A [3] (benzofurans) lay within 1000 to 10000 nM.

Take `COc1ccc2c3c(oc2c1)CCCNC3` [Compound 19, 8-methoxy-2,3,4,5-tetrahydro-1H-benzofuro[3,2-c]azepine]: the EC50 at 5-HT2A [1] (benzofurans) is greater than 10000 nM. Also, the IC50 at 5-HT2A [3] (benzofurans) was greater than 10000 nM.

`CN1CCc2sc3cc(OCc4ccccc4)ccc3c2CC1` [Compound 79, 8-(benzyloxy)-3-methyl-2,3,4,5-tetrahydro-1H-benzo[4,5]thieno[2,3-d]azepine] had an EC50 at 5-HT2A [1] (benzothiophenes) greater than 10000 nM. At 5-HT2A [3] (benzothiophenes), the IC50 is 101 to 1000 nM.

Regarding `CN1CCc2oc3cc(OCc4ccccc4)ccc3c2CC1` [Compound 41, 8-(benzyloxy)-3-methyl-2,3,4,5-tetrahydro-1H-benzofuro[2,3-d]azepine], the 50% effective concentration (EC50) at 5-HT2A [1] (benzofurans) was greater than 10000 nM. The IC50 on 5-HT2A [3] (benzofurans) lay in the range of 101 to 1000 nM.

For the molecule `COc1cccc2oc3c(c12)CCNCC3` [Compound 16, 10-methoxy-2,3,4,5-tetrahydro-1H-benzofuro[2,3-d]azepine], the concentration for a half-maximal effect (EC50) at 5-HT2A [1] (benzofurans) was in the range of 10 to 100 nM. In addition, the IC50 at 5-HT2A [3] (benzofurans) lay within 101 to 1000 nM.

On 5-HT2A [1] (benzofurans), `FC(F)(F)Oc1ccc2c3c(oc2c1)CCNCC3` [Compound 44, 8-(trifluoromethoxy)-2,3,4,5-tetrahydro-1H-benzofuro[2,3-d]azepine] came in with an EC50 of 101 to 1000 nM. On 5-HT2A [3] (benzofurans), the IC50 was in the range of 1000 to 10000 nM.

`c1ccc2c3c(oc2c1)CCCNC3` [Compound 22, 2,3,4,5-tetrahydro-1H-benzofuro[3,2-c]azepine] showed an EC50 on 5-HT2A [1] (benzofurans) greater than 10000 nM. On 5-HT2A [3] (benzofurans), the IC50 is greater than 10000 nM.

Take `COc1ccc2c3c(oc2c1)CCCN(C)C3` [Compound 17, 8-methoxy-2-methyl-2,3,4,5-tetrahydro-1H-benzofuro[3,2-c]azepine]: the half-maximal effective concentration (EC50) on 5-HT2A [1] (benzofurans) is greater than 10000 nM. Also, the IC50 at 5-HT2A [3] (benzofurans) is greater than 10000 nM.

In turn, `CN1CCc2oc3cc(OC(F)(F)F)ccc3c2CC1` [Compound 40, 3-methyl-8-(trifluoromethoxy)-2,3,4,5-tetrahydro-1H-benzofuro[2,3-d]azepine] had a concentration giving a half-maximal response (EC50) at 5-HT2A [1] (benzofurans) greater than 10000 nM. Besides, the IC50 at 5-HT2A [3] (benzofurans) fell in the range of 1000 to 10000 nM.

`Fc1cccc2oc3c(c12)CCN(CC(F)(F)F)CC3` [Compound 8, 10-fluoro-3-(2,2,2-trifluoroethyl)-2,3,4,5-tetrahydro-1H-benzofuro[2,3-d]azepine] had an EC50 at 5-HT2A [1] (benzofurans) of 1000 to 10000 nM. Besides, the IC50 on 5-HT2A [3] (benzofurans) was greater than 10000 nM.

`Oc1ccc2c3c(sc2c1)CCNCC3` [Compound 80, 2,3,4,5-tetrahydro-1H-benzo[4,5]thieno[2,3-d]azepin-8-ol] showed a 50% effective concentration (EC50) at 5-HT2A [1] (benzothiophenes) of 101 to 1000 nM. On 5-HT2A [3] (benzothiophenes), the IC50 lay in the range of 10 to 100 nM.

Regarding `CN1CCCc2oc3cc(C(F)(F)F)ccc3c2C1` [Compound 52, 2-methyl-8-(trifluoromethyl)-2,3,4,5-tetrahydro-1H-benzofuro[3,2-c]azepine], the EC50 at 5-HT2A [1] (benzofurans) was greater than 10000 nM. The IC50 at 5-HT2A [3] (benzofurans) was in the range of 1000 to 10000 nM.

`c1ccc(COc2ccc3c4c(oc3c2)CCCNC4)cc1` [Compound 50, 8-(benzyloxy)-2,3,4,5-tetrahydro-1H-benzofuro[3,2-c]azepine] showed a 50% effective concentration (EC50) on 5-HT2A [1] (benzofurans) greater than 10000 nM. Also, at 5-HT2A [3] (benzofurans), the IC50 lay within 1000 to 10000 nM.

On 5-HT2A [1] (benzofurans), `Fc1cccc2oc3c(c12)CNCCC3` [Compound 7, 10-fluoro-2,3,4,5-tetrahydro-1H-benzofuro[3,2-c]azepine] came in with an EC50 greater than 10000 nM. The IC50 on 5-HT2A [3] (benzofurans) was greater than 10000 nM.

As to `Fc1ccc2c3c(sc2c1)CCN(CC(F)(F)F)CC3` [Compound 71, 8-fluoro-3-(2,2,2-trifluoroethyl)-2,3,4,5-tetrahydro-1H-benzo[4,5]thieno[2,3-d]azepine], the EC50 at 5-HT2A [1] (benzothiophenes) is greater than 10000 nM. At 5-HT2A [3] (benzothiophenes), the IC50 is greater than 10000 nM.

As for `COc1cccc2oc3c(c12)CCN(C1CCC1)CC3` [Compound 15, 3-cyclobutyl-10-methoxy-2,3,4,5-tetrahydro-1H-benzofuro[2,3-d]azepine], the EC50 at 5-HT2A [1] (benzofurans) is 1000 to 10000 nM. Also, the IC50 at 5-HT2A [3] (benzofurans) was in the range of 1000 to 10000 nM.

Consider `CN1CCCc2oc3ccccc3c2C1` [Compound 21, 2-methyl-2,3,4,5-tetrahydro-1H-benzofuro[3,2-c]azepine], for which the EC50 at 5-HT2A [1] (benzofurans) is greater than 10000 nM. Further, the IC50 at 5-HT2A [3] (benzofurans) is greater than 10000 nM.

In turn, `COc1ccc2c3c(sc2c1)CCNCC3` [Compound 35, 8-methoxy-2,3,4,5-tetrahydro-1H-benzo[4,5]thieno[2,3-d]azepine] came in with an EC50 at 5-HT2A [1] (benzothiophenes) of 101 to 1000 nM. Further, the IC50 at 5-HT2A [3] (benzothiophenes) was 1000 to 10000 nM.

With `CN1CCCc2oc3cccc(OCc4ccccc4)c3c2C1` [Compound 55, 10-(benzyloxy)-2-methyl-2,3,4,5-tetrahydro-1H-benzofuro[3,2-c]azepine], the EC50 on 5-HT2A [1] (benzofurans) is greater than 10000 nM. The IC50 on 5-HT2A [3] (benzofurans) is 10 to 100 nM.
